≈ marks a conversion by molar mass, not a printed value.
Columns and labels:
MDA-MB-435 = test: Cytotoxicity against human MDA-MB-435 cells after 72 hrs by MTT assay; format: functional, cell-based; conditions: MDA-MB-435, 72 h
COLO 205 = test: Cytotoxicity against human COLO205 cells after 72 hrs by MTT assay; format: functional, cell-based; conditions: COLO 205, 72 h
DU-145 = test: Growth inhibition of human DU145 cells at 200 uM after 24 hrs by WST-1 assay relative to control; format: functional; conditions: DU-145, 24 h, read-out: GI
HL-60 = test: Antiproliferative activity against human HL60 cells assessed as reduction in cell viability after 3 days by XTT assay; format: functional, cell-based; conditions: HL-60, 72 h
NCI-H460 = test: Cytotoxicity against human NCI-H460 cells after 24 hrs by MTT assay; format: functional, cell-based; conditions: NCI-H460, 24 h
MCF7 = test: Cytotoxicity against human MCF7 cells after 24 hrs by MTT assay; format: functional, cell-based; conditions: MCF7, 24 h
HepG2 = test: Cytotoxicity against human HepG2 cells after 24 hrs by MTT assay; format: functional, cell-based; conditions: HepG2, 24 h
HeLa = test: Cytotoxicity against human HeLa cells assessed as reduction in cell viability after 24 hrs by MTT assay; format: functional, cell-based
[1] = Cytotoxicity against human HO8910 cells assessed as reduction in cell viability after 24 hrs by MTT assay; format: functional, cell-based; conditions: HO-8910, 24 h
[2] = Cytotoxicity against human 95-D cells assessed as reduction in cell viability after 24 hrs by MTT assay; format: functional, cell-based
[3] = Cytotoxicity against human QGY cells assessed as reduction in cell viability after 24 hrs by MTT assay; format: functional, cell-based
HCT-116 = test: Cytotoxicity against human p53 positive HCT116 cells assessed as reduction in cell viability after 48 hrs by MTT assay; format: functional; conditions: HCT-116, 48 h, read-out: LD50 (the source's name)
HT-29 = test: Cytotoxicity against human HT-29 cells after 24 hrs by MTT assay; format: functional, cell-based; conditions: HT-29, 24 h
MIA PaCa-2 = test: Cytotoxicity against human MIAPaCa2 cells after 24 hrs by MTT assay; format: functional, cell-based; conditions: MIA PaCa-2, 24 h
HEp-2 = test: Cytotoxicity against human Hep2 cells after 24 hrs by MTT assay; format: functional, cell-based; conditions: HEp-2, 24 h
A549 = test: Cytotoxicity against human A549 cells after 24 hrs by MTT assay; format: functional, cell-based; conditions: A549, 24 h
BGC-823 = test: Cytotoxicity against human BGC823 cells; format: functional, cell-based
HCT-8 = test: Cytotoxicity against human HCT8 cells; format: functional, cell-based

Q: Which IC50 (MDA-MB-435) does the source give for `C=C1C(=O)O[C@H]2[C@H]1[C@@H](O)C[C@]1(C)O[C@@]13C(=O)C=C(C)[C@H]23` here?
A: Its IC50 is 7 to 10 µM.

Q: And the IC50 (COLO 205)?
A: The IC50 was 7 to 10 µM.

Q: With `C=C1C(=O)O[C@H]2[C@H]1[C@@H](OC(=O)C(C)CC)CC(=C)[C@]1(O)CC=C(C)[C@H]21` (some centres undefined) as the compound, how does the IC50 (MDA-MB-435) read?
A: The IC50 was 7 to 10 µM.

Q: And the IC50 (COLO 205)?
A: The IC50 was 7 to 10 µM.

Q: With `COc1c(O)cc2oc(Oc3ccc(O)cc3)cc(=O)c2c1O` as the compound, how does the inhibition of growth at 200 µM (DU-145) read?
A: The inhibition of growth at 200 µM was 20%.

Q: What about the IC50 (HL-60) of the same compound?
A: The IC50 was 1.1 to 40.7 µg/mL (≈ 3.48 to 129 µM).

Q: Which IC50 (NCI-H460) does the source give for `CC1=C[C@@H]2[C@@H]([C@@H](C)C(=O)O)CC[C@@](C)(O)[C@@H]2C[C@H]1O` here?
A: Its IC50 is 26.8 to 48.7 µM.

Q: And the IC50 (MCF7)?
A: Its IC50 is 26.8 to 48.7 µM.

Q: What about the IC50 (HepG2) of the same compound?
A: Its IC50 is 26.8 to 48.7 µM.

Q: For `C=CC(=C)CC/C=C(/CCC=C(C)C)COC(C)=O`, which IC50 (HeLa) is on record?
A: Its IC50 is 17.9 to 73.3 µM.

Q: What about the IC50 [1] of the same compound?
A: Its IC50 is 17.9 to 73.3 µM.

Q: And the IC50 [2]?
A: The IC50 was 17.9 to 73.3 µM.

Q: What about the IC50 [3] of the same compound?
A: Its IC50 is 17.9 to 73.3 µM.

Q: For `CCCCCCCCCCCCCCCCCCCCCCOC(=O)/C=C/c1ccc(O)cc1`, which CC50 (HCT-116) is on record?
A: The CC50 was 33.8 µM.

Q: What does the source list for `CC#CC#CC(=O)c1ccccc1`?
A: IC50 (HL-60): 1.1 to 40.7 µg/mL (≈ 6.54 to 242 µM); IC50 (HT-29): 0.6 to 6.1 µM; IC50 (MIA PaCa-2): 0.6 to 6.1 µM; IC50 (HEp-2): 0.6 to 6.1 µM; IC50 (A549): 0.6 to 6.1 µM

Q: Which IC50 (BGC-823) does the source give for `C=C(C(=O)OC)[C@@H]1CC[C@@]2(C)C(=O)C=C[C@@](C)(O)[C@@H]2[C@H]1O` here?
A: Its IC50 is 6.25 µM.

Q: What about the IC50 (HCT-8) of the same compound?
A: The IC50 was 9.13 µM.

Q: What does the source list for `CC1=CC(=O)C2=C(C)C[C@@H](O[C@@H]3O[C@H](CO)[C@@H](O)[C@H](O)[C@H]3O)[C@@H]3[C@@H](OC(=O)[C@H]3C)[C@@H]12`?
A: IC50 (NCI-H460): 26.8 to 48.7 µM; IC50 (MCF7): 26.8 to 48.7 µM; IC50 (HepG2): 26.8 to 48.7 µM
